According to publication PMC10526274, “Epithelial-Immune Cell Crosstalk Determines the Activation of Immune Cells In Vitro by the Human Cathelicidin LL-37 at Low Physiological Concentrations” (Biomolecules, 2023):

Test system: primary blood monocytes
Assay: Multiplex phosphoprotein signaling in monocyte lysates, monocytes alone + LL-37
Assay type: cell-based, human
Conditions: 1 µM LL-37, 2 h, mean MFI normalized to β-tubulin
Description: Primary blood monocytes were isolated from PBMCs by plastic adhesion in the wells of a 24-well plate 24 h prior to the experiment. For that, 2 × 10^6 PBMC were seeded in each well in 2 mL of RPMI-1640 without supplements and kept for 1 h in a humidified CO2-incubator (5% CO2, 37 °C). Then, the adhered monocytes were thoroughly washed 3 times with the culture medium without supplements, and 600 µL of the complete RPMI-1640, supplemented with 10% Human AB serum, was added into each well. Then, 24 h later, the medium in the wells of a 24-well plate was replaced by a fresh medium with or without 1 µM of LL-37, and the permeable inserts with Caco-2 monolayers with TEER > 400 Ω × cm^2, containing 400 μL of the complete medium in their apical chamber, were immediately placed into the appropriate wells for 2 h. Then, 2 h later, the culture medium and the inserts were carefully removed, and the cells in each well were washed with PBS and lysed in 100 µL of MILLIPLEX MAP Lysis Buffer (cat. #43-040, Merck, Darmstadt, Germany), containing phosphatase inhibitors including 1 mM sodium orthovanadate (Na3VO4). To prevent protein degradation, a protease inhibitor cocktail (cat. #535140, Merck) was freshly added to the MILLIPLEX MAP Lysis Buffer. Cell lysate preparation was performed in accordance with the manufacturer’s instructions.
The phosphorylation of the following key cell signaling kinases and transcription factors was measured in cell lysates by using the MILLIPLEX multi-pathway magnetic bead 9-plex kit (#48-680MAG, Merck), containing phosphorylation state-specific antibodies: ERK/MAP kinase 1/2 (Thr185/Tyr187), Akt (Ser473), STAT3 (Ser727), JNK (Thr183/Tyr185), p70S6 kinase (Thr412), NF-κB (Ser536), STAT5A/B (Tyr694/699), CREB (Ser133), and p38 (Thr180/Tyr182). β-Tubulin MAPmate magnetic beads (#46-713MAG, Merck) were used as an assay normalization control to normalize the total protein level between the samples. A multiplex assay was carried out in accordance with the manufacturer’s instructions with overnight incubation of the samples with primary antibodies to phosphorylated signaling proteins on the MAGPIX system (Merck) using the xPONENT 4.2 software (Merck). The final analysis of the acquired fluorescence data was performed with the MILLIPLEX Analyst v5.1 software (Merck). Normalized MFI values were compared with an unpaired two-sample t-test using GraphPad Prism v.8.0.1 (GraphPad Software). The p-values ≤ 0.05 were considered significant.

LL-37: the only human cathelicidin, host defense antimicrobial peptide of 37 a.a. residues, produced by solid-phase peptide synthesis
phosphorylated STAT3 (control 0.03): 0.04 MFI | phosphorylated NF-kB (control 96.21): 54.12 MFI | phosphorylated STAT5 (control 134.68): 66.15 MFI | phosphorylated JNK (control 214.97): 140.9 MFI | phosphorylated p70S6K (control 279.26): 462.14 MFI | phosphorylated Akt (control 3026): 2827 MFI | phosphorylated ERK 1/2 (control 5351): 4054 MFI | phosphorylated p38 (control 28314): 24565 MFI | phosphorylated CREB (control 151618): 112466 MFI
